Values of other authors as cited in patent publication US6436889B1, “Detergent compositions” (Unilever Home & Personal Care USA division of Conopco, Inc., priority 1999, dated 2002).
Like-named read-outs stand apart in the source and are kept apart here.

[1] = at 20° C., other common materials

Water Solubility (grams of solid required to form a saturated solution in 100 grams of water at 20° C., highly water-soluble materials) [g/100 g]	SMILES	Water Solubility [1] [g/100 g]
	O=BO[O-].[Na+] [Sodium perborate anhydrous]	3.7
	O=P(O)(O)OP(=O)(O)OP(=O)(O)O [Sodium tripolyphosphate anhydrous]	15
>100	NC(N)=O [Urea]	
